Measured values: PubChem BioAssay (NCI)
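Compound exposure: 48 hours, 5 concentrations, 96-well plates. The concentration for 50% growth inhibition is given as GI50. TGI marks complete inhibition of growth.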

How the values were obtained:
Experiment in all cases: NCI-60 cell line screen, 48 h; in the data active means GI50 below about 0.43 µM; inactive means the rest
786-0 renal = tested on: 786-0 renal
A498 renal = tested on: A498 renal
A549 NSCLC = tested on: A549 NSCLC
ACHN renal = tested on: ACHN renal
BT-549 breast = tested on: BT-549 breast
CAKI-1 renal = tested on: CAKI-1 renal
CCRF-CEM leukemia = tested on: CCRF-CEM leukemia
COLO 205 colon = tested on: COLO 205 colon
DU-145 prostate = tested on: DU-145 prostate
EKVX NSCLC = tested on: EKVX NSCLC
HCC-2998 colon = tested on: HCC-2998 colon
HCT-116 colon = tested on: HCT-116 colon
HCT-15 colon = tested on: HCT-15 colon
HL-60(TB) leukemia = tested on: HL-60(TB) leukemia
HOP-62 NSCLC = tested on: HOP-62 NSCLC
HOP-92 NSCLC = tested on: HOP-92 NSCLC
HS 578T breast = tested on: HS 578T breast
HT29 colon = tested on: HT29 colon
IGROV1 ovarian = tested on: IGROV1 ovarian
K-562 leukemia = tested on: K-562 leukemia
KM12 colon = tested on: KM12 colon
LOX IMVI melanoma = tested on: LOX IMVI melanoma
M14 melanoma = tested on: M14 melanoma
MALME-3M melanoma = tested on: MALME-3M melanoma
MCF7 breast = tested on: MCF7 breast
MDA-MB-231 breast = tested on: MDA-MB-231 breast
MDA-MB-435 = tested on: MDA-MB-435
MOLT-4 leukemia = tested on: MOLT-4 leukemia
NCI-H226 lung = tested on: NCI-H226 lung

NS(=O)(=O)c1cccc(Nc2nc(SCC(=O)c3ccc([N+](=O)[O-])cc3)nc3ccccc23)c1
> 100 µM: TGI (786-0 renal) | TGI (A498 renal) | TGI (A549 NSCLC) | TGI (ACHN renal) | TGI (CAKI-1 renal) | TGI (CCRF-CEM leukemia) | TGI (COLO 205 colon) | TGI (DU-145 prostate) | TGI (EKVX NSCLC) | TGI (HCC-2998 colon) | TGI (HCT-116 colon) | TGI (HCT-15 colon) | TGI (HOP-62 NSCLC) | TGI (HOP-92 NSCLC) | TGI (HS 578T breast) | TGI (HT29 colon) | TGI (IGROV1 ovarian) | TGI (K-562 leukemia) | TGI (KM12 colon) | TGI (LOX IMVI melanoma) | TGI (M14 melanoma) | TGI (MALME-3M melanoma) | TGI (MCF7 breast) | TGI (MDA-MB-231 breast) | TGI (MDA-MB-435)
45.1 µM: TGI (MOLT-4 leukemia)
inactive: GI50 (786-0 renal) 48.5 µM | GI50 (A498 renal) 38.4 µM | GI50 (A549 NSCLC) 32 µM | GI50 (ACHN renal) 30.6 µM | GI50 (BT-549 breast) 11.3 µM | GI50 (CAKI-1 renal) 32.1 µM | GI50 (CCRF-CEM leukemia) 20.3 µM | GI50 (COLO 205 colon) 40.3 µM | GI50 (DU-145 prostate) 28.7 µM | GI50 (EKVX NSCLC) 32.9 µM | GI50 (HCC-2998 colon) 31.7 µM | GI50 (HCT-116 colon) 31.3 µM | GI50 (HCT-15 colon) 38.7 µM | GI50 (HL-60(TB) leukemia) 22.2 µM | GI50 (HOP-62 NSCLC) 28.8 µM | GI50 (HOP-92 NSCLC) 14 µM | GI50 (HS 578T breast) 35.2 µM | GI50 (HT29 colon) 38.8 µM | GI50 (IGROV1 ovarian) 24 µM | GI50 (K-562 leukemia) 23.6 µM | GI50 (KM12 colon) 37.6 µM | GI50 (LOX IMVI melanoma) 31.4 µM | GI50 (M14 melanoma) 31.6 µM | GI50 (MALME-3M melanoma) 44.5 µM | GI50 (MCF7 breast) 12.4 µM | GI50 (MDA-MB-231 breast) > 100 µM | GI50 (MDA-MB-435) 44.9 µM | GI50 (MOLT-4 leukemia) 12.9 µM | GI50 (NCI-H226 lung) 21.2 µM
51.5 µM: TGI (BT-549 breast)
64.3 µM: TGI (HL-60(TB) leukemia)
